# Legend:
# Format in all cases: in vivo
# [1] = tested on: barnyardgrass (Echinochloa crus-galli); assay: Test A postemergence, barnyardgrass; details: visual injury, 0 to 100 scale (0 no effect, 100 complete control), approximately 10 days
# Method in brief: (§1)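 Ratings use a 0–100 scale, where 0 means no effect and 100 means complete control, and come from visual comparison with untreated plants roughly 10 days after treatment. Compounds were applied in a surfactant-containing, non-phytotoxic solvent, either to soil after seeding or to foliage of small seedlings.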
# [2] = tested on: ragweed (common ragweed, Ambrosia elatior); assay: Test A preemergence, ragweed; details: 0 to 100 scale (0 no effect, 100 complete control)
# Method in brief: as §1
# [3] = tested on: pigweed (Amaranthus retroflexus); assay: Test A postemergence, pigweed; details: visual injury, 0 to 100 scale (0 no effect, 100 complete control), approximately 10 days
# Method in brief: as §1
# [4] = tested on: barnyardgrass (Echinochloa crus-galli); assay: Test B flooded paddy test, barnyardgrass; details: applied to paddy water, visual rating after 13 to 15 days, scale 0 (no effect) to 100 (complete control)
# Method in brief: (§2)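 In-water treatment: compound dosed into 3 cm flood over soil, water level unchanged throughout. Controls run alongside; visual assessment at day 13–15.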
# [5] = tested on: sedge, umbrella (small-flower umbrella sedge, Cyperus difformis); assay: Test B flooded paddy test, umbrella sedge; details: applied to paddy water, visual rating after 13 to 15 days, scale 0 (no effect) to 100 (complete control)
# Method in brief: as §2
# [6] = tested on: barnyardgrass (Echinochloa crus-galli); assay: Test A preemergence, barnyardgrass; details: 0 to 100 scale (0 no effect, 100 complete control)
# Method in brief: as §1
# [7] = tested on: foxtail, giant (Setaria faberii); assay: Test A preemergence, giant foxtail; details: 0 to 100 scale (0 no effect, 100 complete control)
# Method in brief: as §1
# [8] = tested on: wheat (Triticum aestivum); assay: Test A postemergence, wheat; details: visual injury, 0 to 100 scale (0 no effect, 100 complete control), approximately 10 days
# Method in brief: as §1
# corn (Zea mays) = assay: Test A postemergence, corn; details: visual injury, 0 to 100 scale (0 no effect, 100 complete control), approximately 10 days
# Method in brief: as §1
# rice (Oryza sativa) = assay: Test B flooded paddy test, rice; details: applied to paddy water, visual rating after 13 to 15 days, scale 0 (no effect) to 100 (complete control)
# Method in brief: as §2
# kochia (Kochia scoparia) [9] = assay: Test A preemergence, kochia; details: 0 to 100 scale (0 no effect, 100 complete control)
# Method in brief: as §1
# [10] = tested on: ducksalad (Heteranthera limosa); assay: Test B flooded paddy test, ducksalad; details: applied to paddy water, visual rating after 13 to 15 days, scale 0 (no effect) to 100 (complete control)
# Method in brief: as §2
# kochia (Kochia scoparia) [11] = assay: Test A postemergence, kochia; details: visual injury, 0 to 100 scale (0 no effect, 100 complete control), approximately 10 days
# Method in brief: as §1
# [12] = tested on: blackgrass (Alopecurus myosuroides); assay: Test A postemergence, blackgrass; details: visual injury, 0 to 100 scale (0 no effect, 100 complete control), approximately 10 days
# Method in brief: as §1
# [13] = tested on: pigweed (Amaranthus retroflexus); assay: Test A preemergence, pigweed; details: 0 to 100 scale (0 no effect, 100 complete control)
# Method in brief: as §1
# [14] = tested on: galium (catchweed bedstraw, Galium aparine); assay: Test A postemergence, galium; details: visual injury, 0 to 100 scale (0 no effect, 100 complete control), approximately 10 days
# Method in brief: as §1
# [15] = tested on: ryegrass, Italian (Lolium multiflorum); assay: Test A preemergence, Italian ryegrass; details: 0 to 100 scale (0 no effect, 100 complete control)
# Method in brief: as §1
# [16] = tested on: ryegrass, Italian (Lolium multiflorum); assay: Test A postemergence, Italian ryegrass; details: visual injury, 0 to 100 scale (0 no effect, 100 complete control), approximately 10 days
# Method in brief: as §1
# [17] = tested on: foxtail, giant (Setaria faberii); assay: Test A postemergence, giant foxtail; details: visual injury, 0 to 100 scale (0 no effect, 100 complete control), approximately 10 days
# Method in brief: as §1
# [18] = tested on: ragweed (common ragweed, Ambrosia elatior); assay: Test A postemergence, ragweed; details: visual injury, 0 to 100 scale (0 no effect, 100 complete control), approximately 10 days
# Method in brief: as §1
Structure (SMILES),"Plant response rating, Barnyardgrass ([1]; 125 g ai/ha)","Plant response rating, Barnyardgrass ([1]; 500 g ai/ha)","Plant response rating, Ragweed ([2]; 125 g ai/ha)","Plant response rating, Ragweed ([2]; 500 g ai/ha)","Plant response rating, Pigweed ([3]; 125 g ai/ha)","Plant response rating, Pigweed ([3]; 500 g ai/ha)","Plant response rating, Barnyardgrass ([6]; 125 g ai/ha)","Plant response rating, Barnyardgrass ([6]; 500 g ai/ha)","Plant response rating, Foxtail, Giant ([7]; 125 g ai/ha)","Plant response rating, Foxtail, Giant ([7]; 500 g ai/ha)","Plant response rating, Wheat ([8]; 125 g ai/ha)","Plant response rating, Wheat ([8]; 500 g ai/ha)","Plant response rating, Corn (corn (Zea mays); 125 g ai/ha)","Plant response rating, Corn (corn (Zea mays); 500 g ai/ha)","Plant response rating, Kochia (kochia (Kochia scoparia) [9]; 125 g ai/ha)","Plant response rating, Kochia (kochia (Kochia scoparia) [9]; 500 g ai/ha)","Plant response rating, Kochia (kochia (Kochia scoparia) [11]; 125 g ai/ha)","Plant response rating, Kochia (kochia (Kochia scoparia) [11]; 500 g ai/ha)","Plant response rating, Blackgrass ([12]; 125 g ai/ha)","Plant response rating, Blackgrass ([12]; 500 g ai/ha)",also measured
O=C1NCC(c2cccc(Cn3ccc(C(F)(F)F)n3)c2)C1C(=O)Nc1ccc(F)c(F)c1F (stereo not drawn) [Compound 22],40,60,0,0,0,0,0,30,40,80,0,0,0,0,0,0,0,0,0,0,"Plant response rating, Barnyardgrass (Flood) ([4]; 500 g ai/ha): 30; Plant response rating, Sedge, Umbrella (Flood) ([5]; 500 g ai/ha): 0; Plant response rating, Rice (Flood) (rice (Oryza sativa); 500 g ai/ha): 0; Plant response rating, Ducksalad (Flood) ([10]; 500 g ai/ha): 0; Plant response rating, Pigweed ([13]; 125 g ai/ha): 0; Plant response rating, Pigweed ([13]; 500 g ai/ha): 0; Plant response rating, Galium ([14]; 125 g ai/ha): 0; Plant response rating, Galium ([14]; 500 g ai/ha): 0; Plant response rating, Ryegrass, Italian ([15]; 125 g ai/ha): 0; Plant response rating, Ryegrass, Italian ([15]; 500 g ai/ha): 0; Plant response rating, Ryegrass, Italian ([16]; 125 g ai/ha): 0; Plant response rating, Ryegrass, Italian ([16]; 500 g ai/ha): 0; Plant response rating, Foxtail, Giant ([17]; 125 g ai/ha): 20; Plant response rating, Foxtail, Giant ([17]; 500 g ai/ha): 60; Plant response rating, Ragweed ([18]; 125 g ai/ha): 0; Plant response rating, Ragweed ([18]; 500 g ai/ha): 0"
"CON=Cc1cccc(C2CN(C)C(=O)C2C(=O)Nc2ccccc2F)c1 (stereo not drawn) [Compound 53, N-(2-fluorophenyl)-4-[3-[(methoxyimino)methyl]phenyl]-1-methyl-2-oxo-3-pyrrolidinecarboxamide]",70,90,0,0,0,0,90,90,90,90,0,0,0,0,60,70,0,0,0,20,"Plant response rating, Barnyardgrass (Flood) ([4]; 250 g ai/ha): 30; Plant response rating, Sedge, Umbrella (Flood) ([5]; 250 g ai/ha): 0; Plant response rating, Rice (Flood) (rice (Oryza sativa); 250 g ai/ha): 0; Plant response rating, Ducksalad (Flood) ([10]; 250 g ai/ha): 70; Plant response rating, Pigweed ([13]; 125 g ai/ha): 0; Plant response rating, Pigweed ([13]; 500 g ai/ha): 0; Plant response rating, Galium ([14]; 125 g ai/ha): 0; Plant response rating, Galium ([14]; 500 g ai/ha): 30; Plant response rating, Ryegrass, Italian ([15]; 125 g ai/ha): 0; Plant response rating, Ryegrass, Italian ([15]; 500 g ai/ha): 0; Plant response rating, Ryegrass, Italian ([16]; 125 g ai/ha): 0; Plant response rating, Ryegrass, Italian ([16]; 500 g ai/ha): 0; Plant response rating, Foxtail, Giant ([17]; 125 g ai/ha): 80; Plant response rating, Foxtail, Giant ([17]; 500 g ai/ha): 90; Plant response rating, Ragweed ([18]; 125 g ai/ha): 0; Plant response rating, Ragweed ([18]; 500 g ai/ha): 0"
"O=C1NCC(c2cccc(Oc3ccc(C(F)(F)F)cn3)c2)C1C(=O)Nc1cccc(F)c1F (single isomer, unassigned) [Compound 47]",70,90,0,60,60,70,50,80,90,90,0,30,20,80,0,0,0,60,0,20,"Plant response rating, Barnyardgrass (Flood) ([4]; 250 g ai/ha): 0; Plant response rating, Sedge, Umbrella (Flood) ([5]; 250 g ai/ha): 0; Plant response rating, Rice (Flood) (rice (Oryza sativa); 250 g ai/ha): 0; Plant response rating, Ducksalad (Flood) ([10]; 250 g ai/ha): 0; Plant response rating, Pigweed ([13]; 125 g ai/ha): 0; Plant response rating, Pigweed ([13]; 500 g ai/ha): 50; Plant response rating, Galium ([14]; 125 g ai/ha): 60; Plant response rating, Galium ([14]; 500 g ai/ha): 70; Plant response rating, Ryegrass, Italian ([15]; 125 g ai/ha): 0; Plant response rating, Ryegrass, Italian ([15]; 500 g ai/ha): 70; Plant response rating, Ryegrass, Italian ([16]; 125 g ai/ha): 0; Plant response rating, Ryegrass, Italian ([16]; 500 g ai/ha): 30; Plant response rating, Foxtail, Giant ([17]; 125 g ai/ha): 60; Plant response rating, Foxtail, Giant ([17]; 500 g ai/ha): 80; Plant response rating, Ragweed ([18]; 125 g ai/ha): 0; Plant response rating, Ragweed ([18]; 500 g ai/ha): 0"

# From US10405547B2, “Substituted cyclic amides as herbicides” (FMC Corporation, priority 2015, dated 2019)
